In PubChem BioAssay (NCI):
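Five compound concentrations were applied to cells in 96-well plates for 48 hours; endpoints were derived by simple linear interpolation of the resulting dose-response curve. Abbreviation: GI50, concentration required for 50% inhibition of growth. TGI is the concentration that stops growth completely.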

Tests used:
[1] = test system: T-47D breast; test: growth of human tumour cells (NCI), 48 h
[2] = test system: MCF7 breast; test: growth of human tumour cells (NCI), 48 h

Row | Structure (SMILES) | GI50 [1] | TGI [1] | GI50 [2] | TGI [2]
1 | CCN(CC)CCNc1ccc(C)c2sc3cc(Cl)ccc3c(=O)c12 | 1.65 µM | 4.02 µM | 1.55 µM | 3.2 µM
2 | CCOC(=O)C1=C(C)N=c2s/c(=C\c3ccccc3O)c(=O)n2C1c1ccc(OC)c2ccccc12 (stereo not drawn) | 5.28 µM | 22.8 µM | 4.36 µM | 32 µM
3 | COC(=O)[C@@H](C)C[C@H](Cc1cn(C)c2ccccc12)NC(=O)c1csc([C@@H](C[C@H](C(C)C)N(C)C(=O)[C@@H](NC(=O)[C@H]2CCCCN2C)C(C)C)OC(C)=O)n1 | > 16.7 µM | > 16.7 µM | 0.00524 µM | > 16.7 µM
4 | O=C(c1ccco1)c1nc2cc(C(F)(F)F)ccc2nc1C(F)(F)F | 72 µM | > 100 µM | 40.6 µM | > 100 µM
5 | O=C1c2[nH]cc(CNC3CN4CCC3CC4)c2C(=O)c2c1c(O)c1ccccc1c2O (stereo not drawn) | 19 µM | 39.2 µM | – | –
6 | CC[C@H]1CN2CCc3cc(OC)c(OC)cc3C2C[C@@H]1CC1NCCc2cc(OC)c(OC)cc21 (stereo partly drawn) | – | 0.0773 µM | 0.0146 µM | 1.22 µM
7 | COc1ccc(N=Cc2c(O)ccc3c2oc2cc(Cl)c(O)c(Cl)c23)cc1 | 7.65 µM | 46.4 µM | 7.7 µM | 44.1 µM
8 | CCC(CC)c1nc(Nc2ccc(C(=O)OC)cc2)c2ccccc2n1 | 7.88 µM | 17.5 µM | 24.2 µM | > 50 µM
9 | N#Cc1c(NC(=O)NCc2ccccc2)sc2c1CCCC2 | – | – | 0.363 µM | > 100 µM
10 | CCOC(=O)c1ccc(Nc2sc(C(=O)c3ccc(Br)cc3)c(N)c2C#N)cc1 | 2.85 µM | > 100 µM | 0.655 µM | > 100 µM
11 | O=C(/C=C/c1ccco1)c1cc(F)c(Cl)cc1Cl | 18.1 µM | 56.8 µM | 14.1 µM | 63 µM
12 | CCCCCCCC/C=C/CCCCCCCC1=NC(C)(C)CN1CC(C)O (stereo not drawn) | 2.03 µM | 4.58 µM | 1.85 µM | 3.62 µM
13 | CN(C)c1ccc(/C=C/c2ccnc3c(O)cccc23)cc1 | 0.375 µM | > 100 µM | 0.371 µM | > 100 µM
14 | CN1CCC(COc2cnc(-c3cccc(Cn4nc(-c5cccc(C#N)c5)ccc4=O)c3)nc2)CC1 | 2.27 µM | 5.99 µM | 3.46 µM | 14.9 µM
15 | O=C1CC[C@H](N2C(=O)c3cccc4c(Cc5ccc(CN6CCOCC6)cc5)ccc2c34)C(=O)N1 | 10.7 µM | > 100 µM | 23.7 µM | > 100 µM
16 | C[C@]12CC[C@@H]3c4cc(OC(F)F)c(O)cc4CC[C@H]3[C@@H]1CC[C@@H]2OS(N)(=O)=O | 1.02 µM | 50.7 µM | 0.566 µM | 47.1 µM
17 | O=C1C(Cl)=C(Sc2nnc3c4ccccc4c4ccccc4c3n2)C(=O)c2ccccc21 | – | 19.2 µM | – | 28.2 µM
18 | C[n+]1c(/C=C/c2c[nH]c3ccccc23)ccc2ccccc21 | – | – | 2.16 µM | 34.1 µM
19 | C=C(C)[C@@H]1CC[C@]2(COCCC#N)CC[C@]3(C)[C@H](CC[C@@H]4[C@@](C)(CCCNCCC#N)[C@H](C(=C)C)CC[C@]43C)[C@@H]12 | 8.71 µM | > 50 µM | 9.9 µM | 48.5 µM
20 | COc1cc2nccc(Oc3ccc(NC(=O)NC4CC4)c(Cl)c3)c2cc1C(N)=O | 14.4 µM | > 100 µM | 36.2 µM | > 100 µM
21 | Cc1cc(Cl)cc2c(N=Nc3ccc(S(N)(=O)=O)cc3)c(O)[nH]c12 | > 25 µM | > 25 µM | > 25 µM | > 25 µM
22 | Cn1cc(C2=C(c3ccccc3[N+](=O)[O-])C(=O)NC2=O)c2ccccc21 | 7.52 µM | 23.5 µM | 4.05 µM | > 25 µM
23 | COC1=CC(c2ccc[nH]2)=N/C1=C\c1[nH]c(C)c(CC(=O)OCc2ccccc2)c1CCC(=O)OCc1ccccc1 | 0.256 µM | 0.922 µM | 0.372 µM | 5.5 µM
24 | Cc1ccc(NC(=O)c2ccc(CN3CCN(C)CC3)cc2)cc1Nc1nccc(-c2cccnc2)n1 | 16.9 µM | 49.6 µM | 17.8 µM | 44.8 µM
25 | Nc1ccccc1NC(=O)c1ccc(CNc2nccc(-c3cccnc3)n2)cc1 | 0.657 µM | > 22.8 µM | 0.716 µM | > 43.3 µM
26 | COc1cc(/C=C2\C[C@H]3[C@@H]4CC=C5C[C@@H](O)CC[C@]5(C)[C@H]4CC[C@]3(C)[C@H]2O)ccc1OCCN1CCCC1 | 19.9 µM | > 50 µM | 16.4 µM | > 50 µM
27 | CCOC(=O)c1ccccc1OC(=O)NNc1ccccc1 | 0.892 µM | > 100 µM | 8.14 µM | > 100 µM
28 | COc1ccc(/C=C(/C(=O)N2CCN(c3ccccc3)CC2)c2cc(OC)c(OC)c(OC)c2)cc1N | – | – | 0.326 µM | > 100 µM
29 | NCCCNc1nc2ccccc2c2c(=O)c3cc(F)cc(F)c3sc12 | 16.2 µM | 55.4 µM | – | –
